Reference: patent US11911346B2, “Orally administrated therapeutic for treating mild cognitive impairment (MCI) and improving human cognitive function” (BrainCare LLC, priority 2021, dated 2024)

System: cognitive function of participants with Subjective Cognitive Decline
Experiment: Cognitive Failures Questionnaire (CFQ), 8-week randomized study of one or two BCP capsules daily
Type: in vivo, human
Details: for CFQ score: Do you bump into people? / CFQ score: Do you confuse left and right when giving people directions? / CFQ score: Do you daydream when you ought to be listening to something? / CFQ score: Do you fail to hear people speaking to you when you are doing something? / CFQ score: Do you fail to listen to people's names when you are meeting them for the first time? / CFQ score: Do you fail to notice signposts on the road? / CFQ score: Do you fail to see what you want in a supermarket (although it's there)? / CFQ score: Do you find that you drop things? / CFQ score: Do you find that you forget appointments? / CFQ score: Do you find you accidentally misplace things like placing the fruit in the cupboard and the bowl in the refrigerator? / CFQ score: Do you find you can't quite remember something although it's “on the tip of your tongue”? / CFQ score: Do you find you can't think of anything to say? / CFQ score: Do you find you forget people's names? / CFQ score: Do you find you forget what you came to the store to buy? / CFQ score: Do you find you forget whether you've turned off a light or locked the door? / CFQ score: Do you find you forget which way to turn on a road you know well but rarely use? / CFQ score: Do you find you forget why you went from one place of the house to the other? / CFQ score: Do you find yourself suddenly wondering if you used a word correctly? / CFQ score: Do you forget where you put something like a newspaper or a book? / CFQ score: Do you have trouble making up your mind? / CFQ score: Do you lose track of paying bills? / CFQ score: Do you lose your temper and regret it? / CFQ score: Do you read something and find you haven't been thinking about it and must read it again? / CFQ score: Do you say something and realize afterwards that it might be taken as an insult? / CFQ score: Do you start doing one thing at home and get distracted and do something else (unintentionally)? / Distractibility summed sub-score of CFQ / False triggering summed sub-score of CFQ / Forgetfulness summed sub-score of CFQ / Total CFQ summed sub-score: lower is better
[1] = one capsule daily (90 mg BCP), week 4
[2] = one capsule daily (90 mg BCP), week 8
[3] = two capsules daily (180 mg BCP), week 4

SMILES: C=C1CC/C=C(\C)CC[C@@H]2[C@@H]1CC2(C)C [BCP, beta-caryophyllene]
- CFQ % better vs. baseline: Do you bump into people? [1]: 29% better
- CFQ % better vs. baseline: Do you daydream when you ought to be listening to something? [1]: 16% better
- CFQ % better vs. baseline: Do you fail to hear people speaking to you when you are doing something? [1]: 15% better
- CFQ % better vs. baseline: Do you fail to notice signposts on the road? [1]: 17% better
- CFQ % better vs. baseline: Do you fail to see what you want in a supermarket (although it's there)? [1]: 14% better
- CFQ % better vs. baseline: Do you find that you drop things? [1]: 14% better
- CFQ % better vs. baseline: Do you find you accidentally misplace things like placing the fruit in the cupboard and the bowl in the refrigerator? [1]: 17% better
- CFQ % better vs. baseline: Do you find you can't quite remember something although it's “on the tip of your tongue”? [1]: 12% better
- CFQ % better vs. baseline: Do you find you can't think of anything to say? [1]: 15% better
- CFQ % better vs. baseline: Do you find you forget people's names? [1]: 12% better
- CFQ % better vs. baseline: Do you find you forget what you came to the store to buy? [1]: 12% better
- CFQ % better vs. baseline: Do you find you forget whether you've turned off a light or locked the door? [1]: 11% better
- CFQ % better vs. baseline: Do you find you forget which way to turn on a road you know well but rarely use? [1]: 27% better
- CFQ % better vs. baseline: Do you find yourself suddenly wondering if you used a word correctly? [1]: 14% better
- CFQ % better vs. baseline: Do you have trouble making up your mind? [1]: 13% better
- CFQ % better vs. baseline: Do you lose track of paying bills? [1]: 23% better
- CFQ % better vs. baseline: Do you read something and find you haven't been thinking about it and must read it again? [1]: 11% better
- CFQ % better vs. baseline: Do you say something and realize afterwards that it might be taken as an insult? [1]: 28% better
- CFQ % worse vs. baseline: Do you confuse left and right when giving people directions? [1]: 17% worse
- CFQ % worse vs. baseline: Do you find that you forget appointments? [1]: 25% worse
- CFQ change vs. baseline: Do you fail to listen to people's names when you are meeting them for the first time? [1]: No change
- CFQ change vs. baseline: Do you lose your temper and regret it? [1]: No change
- CFQ change vs. baseline: Do you start doing one thing at home and get distracted and do something else (unintentionally)? [1]: no change
- CFQ score: Do you bump into people? [1]: 0.5 ± 0.6
- CFQ score: Do you confuse left and right when giving people directions? [1]: 0.7 ± 1.0
- CFQ score: Do you daydream when you ought to be listening to something? [1]: 1.6 ± 0.8
- CFQ score: Do you fail to hear people speaking to you when you are doing something? [1]: 1.7 ± 0.9
- CFQ score: Do you fail to listen to people's names when you are meeting them for the first time? [1]: 2.2 ± 1.1
- CFQ score: Do you fail to notice signposts on the road? [1]: 1.0 ± 0.7
- CFQ score: Do you fail to see what you want in a supermarket (although it's there)? [1]: 1.2 ± 0.7
- CFQ score: Do you find that you drop things? [1]: 1.2 ± 0.9
- CFQ score: Do you find that you forget appointments? [1]: 1.0 ± 0.7
- CFQ score: Do you find you accidentally misplace things like placing the fruit in the cupboard and the bowl in the refrigerator? [1]: 1.0 ± 0.8
- CFQ score: Do you find you can't quite remember something although it's “on the tip of your tongue”? [1]: 2.3 ± 0.8
- CFQ score: Do you find you can't think of anything to say? [1]: 1.1 ± 0.8
- CFQ score: Do you find you forget people's names? [1]: 2.2 ± 1.0
- CFQ score: Do you find you forget what you came to the store to buy? [1]: 1.5 ± 0.8
- CFQ score: Do you find you forget whether you've turned off a light or locked the door? [1]: 1.6 ± 0.8
- CFQ score: Do you find you forget which way to turn on a road you know well but rarely use? [1]: 0.8 ± 0.7
- CFQ score: Do you find you forget why you went from one place of the house to the other? [1]: 1.7 ± 0.6
- CFQ score: Do you find yourself suddenly wondering if you used a word correctly? [1]: 1.2 ± 0.8
- CFQ score: Do you forget where you put something like a newspaper or a book? [1]: 1.8 ± 0.9
- CFQ score: Do you have trouble making up your mind? [1]: 1.3 ± 0.7
- CFQ score: Do you lose track of paying bills? [1]: 1.0 ± 0.8
- CFQ score: Do you lose your temper and regret it? [1]: 1.1 ± 0.7
- CFQ score: Do you read something and find you haven't been thinking about it and must read it again? [1]: 1.7 ± 0.9
- CFQ score: Do you say something and realize afterwards that it might be taken as an insult? [1]: 1.1 ± 1.0
- CFQ score: Do you start doing one thing at home and get distracted and do something else (unintentionally)? [1]: 2.3 ± 0.8
- Distractibility summed sub-score of CFQ [1]: 11 ± 4
- False triggering summed sub-score of CFQ [1]: 9 ± 4
- Forgetfulness summed sub-score of CFQ [1]: 14 ± 5
- Total CFQ summed sub-score [1]: 34 ± 10
- CFQ % better vs. baseline: Do you daydream when you ought to be listening to something? [2]: 11% better
- CFQ % better vs. baseline: Do you fail to hear people speaking to you when you are doing something? [2]: 20% better
- CFQ % better vs. baseline: Do you fail to listen to people's names when you are meeting them for the first time? [2]: 14% better
- CFQ % better vs. baseline: Do you fail to notice signposts on the road? [2]: 17% better
- CFQ % better vs. baseline: Do you fail to see what you want in a supermarket (although it's there)? [2]: 7% better
- CFQ % better vs. baseline: Do you find that you drop things? [2]: 14% better
- CFQ % better vs. baseline: Do you find you accidentally misplace things like placing the fruit in the cupboard and the bowl in the refrigerator? [2]: 25% better
- CFQ % better vs. baseline: Do you find you forget people's names? [2]: 12% better
- CFQ % better vs. baseline: Do you find you forget what you came to the store to buy? [2]: 18% better
- CFQ % better vs. baseline: Do you find you forget whether you've turned off a light or locked the door? [2]: 17% better
- CFQ % better vs. baseline: Do you find you forget which way to turn on a road you know well but rarely use? [2]: 27% better
- CFQ % better vs. baseline: Do you find yourself suddenly wondering if you used a word correctly? [2]: 14% better
- CFQ % better vs. baseline: Do you have trouble making up your mind? [2]: 7% better
- CFQ % better vs. baseline: Do you lose track of paying bills? [2]: 15% better
- CFQ % better vs. baseline: Do you lose your temper and regret it? [2]: 9% better
- CFQ % better vs. baseline: Do you read something and find you haven't been thinking about it and must read it again? [2]: 16% better
- CFQ % better vs. baseline: Do you say something and realize afterwards that it might be taken as an insult? [2]: 20% better
- CFQ % better vs. baseline: Do you start doing one thing at home and get distracted and do something else (unintentionally)? [2]: 4% better
- CFQ % worse vs. baseline: Do you confuse left and right when giving people directions? [2]: 17% worse
- CFQ % worse vs. baseline: Do you find that you forget appointments? [2]: 13% worse
- CFQ change vs. baseline: Do you bump into people? [2]: No change
- CFQ change vs. baseline: Do you find you can't think of anything to say? [2]: no change
- CFQ score: Do you bump into people? [2]: 0.7 ± 0.6
- CFQ score: Do you confuse left and right when giving people directions? [2]: 0.7 ± 0.9
- CFQ score: Do you daydream when you ought to be listening to something? [2]: 1.7 ± 0.9
- CFQ score: Do you fail to hear people speaking to you when you are doing something? [2]: 1.6 ± 0.9
- CFQ score: Do you fail to listen to people's names when you are meeting them for the first time? [2]: 1.9 ± 1.2
- CFQ score: Do you fail to notice signposts on the road? [2]: 1.0 ± 0.8
- CFQ score: Do you fail to see what you want in a supermarket (although it's there)? [2]: 1.3 ± 0.9
- CFQ score: Do you find that you drop things? [2]: 1.2 ± 0.7
- CFQ score: Do you find that you forget appointments? [2]: 0.9 ± 0.8
- CFQ score: Do you find you accidentally misplace things like placing the fruit in the cupboard and the bowl in the refrigerator? [2]: 0.9 ± 0.7
- CFQ score: Do you find you can't quite remember something although it's “on the tip of your tongue”? [2]: 2.1 ± 0.7
- CFQ score: Do you find you can't think of anything to say? [2]: 1.3 ± 0.8
- CFQ score: Do you find you forget people's names? [2]: 2.2 ± 0.8
- CFQ score: Do you find you forget what you came to the store to buy? [2]: 1.4 ± 0.8
- CFQ score: Do you find you forget whether you've turned off a light or locked the door? [2]: 1.5 ± 0.7
- CFQ score: Do you find you forget which way to turn on a road you know well but rarely use? [2]: 0.8 ± 0.7
- CFQ score: Do you find you forget why you went from one place of the house to the other? [2]: 1.7 ± 0.6
- CFQ score: Do you find yourself suddenly wondering if you used a word correctly? [2]: 1.2 ± 0.7
- CFQ score: Do you forget where you put something like a newspaper or a book? [2]: 1.8 ± 0.7
- CFQ score: Do you have trouble making up your mind? [2]: 1.4 ± 0.9
- CFQ score: Do you lose track of paying bills? [2]: 1.1 ± 0.8
- CFQ score: Do you lose your temper and regret it? [2]: 1.0 ± 0.6
- CFQ score: Do you read something and find you haven't been thinking about it and must read it again? [2]: 1.6 ± 0.9
- CFQ score: Do you say something and realize afterwards that it might be taken as an insult? [2]: 1.2 ± 0.7
- CFQ score: Do you start doing one thing at home and get distracted and do something else (unintentionally)? [2]: 2.2 ± 0.6
- Distractibility summed sub-score of CFQ [2]: 11 ± 3
- False triggering summed sub-score of CFQ [2]: 9 ± 4
- Forgetfulness summed sub-score of CFQ [2]: 13 ± 5
- Total CFQ summed sub-score [2]: 33 ± 11
- CFQ % better vs. baseline: Do you bump into people? [3]: 14% better
- CFQ % better vs. baseline: Do you confuse left and right when giving people directions? [3]: 22% better
- CFQ % better vs. baseline: Do you daydream when you ought to be listening to something? [3]: 28%
- CFQ % better vs. baseline: Do you fail to hear people speaking to you when you are doing something? [3]: 12% better
- CFQ % better vs. baseline: Do you fail to listen to people's names when you are meeting them for the first time? [3]: 22% better
- CFQ % better vs. baseline: Do you fail to notice signposts on the road? [3]: 30% better
- CFQ % better vs. baseline: Do you fail to see what you want in a supermarket (although it's there)? [3]: 15% better
- CFQ % better vs. baseline: Do you find that you drop things? [3]: 27% better
- CFQ % better vs. baseline: Do you find that you forget appointments? [3]: 30% better
- CFQ % better vs. baseline: Do you find you accidentally misplace things like placing the fruit in the cupboard and the bowl in the refrigerator? [3]: 13% better
- CFQ % better vs. baseline: Do you find you can't quite remember something although it's “on the tip of your tongue”? [3]: 20%
- CFQ % better vs. baseline: Do you find you can't think of anything to say? [3]: 27% better
- CFQ % better vs. baseline: Do you find you forget people's names? [3]: 20% better
- CFQ % better vs. baseline: Do you find you forget what you came to the store to buy? [3]: 33% better
- CFQ % better vs. baseline: Do you find you forget whether you've turned off a light or locked the door? [3]: 45%
- CFQ % better vs. baseline: Do you find you forget which way to turn on a road you know well but rarely use? [3]: 33% better
- CFQ % better vs. baseline: Do you find you forget why you went from one place of the house to the other? [3]: 39%
